Counter-ions that a name gives are not always drawn. Each block holds one compound with its values, some of them ahead of it.
Target: T1, protein farnesyltransferase (Rattus norvegicus, UniProt Q02293+Q04631)
T1 construct: The enzyme is purified according to Reiss, Y., et al., Cell, 62: 81-88 (1990), utilizing steps one through three; from tissue; host or cells: rat brain
Assay: Inhibition of farnesyltransferase (scintillation proximity assay, rat brain enzyme, biotin-K Ras B fragment substrate)
Format: biochemical
Conditions: for inhibition at 1 µM: read-out: % inhibition of farnesyltransferase at 1 × 10^-6 M; for inhibition at 1 µM / % inhibition of farnesyltransferase at 1 × 10^-6 M: 1 × 10^-6 M (Table 2); for % inhibition of farnesyltransferase at 1 × 10^-5 M: 1 × 10^-5 M (Table 1); for % inhibition of farnesyltransferase at 1 × 10^-7 M / inhibition at 0.1 µM: 1 × 10^-7 M (Table 3); for inhibition at 0.1 µM: read-out: % inhibition of farnesyltransferase at 1 × 10^-7 M
From the text: The ability of the compounds of the invention to inhibit protein farnesyltransferase or protein geranylgeranyltransferase can be measured according to the method of Moores, et al., J. Biol. Chem. 266: 14603 (1991) or the method of Vogt, et al., J. Biol. Chem. 270:660-664 (1995). In addition, procedures for determination of the inhibition of farnesylation of the oncogene protein Ras are described by Goldstein, et al., J. Biol. Chem., 266:15575-15578 (1991) and by Singh in U.S. Pat. No. 5,245,061.
In addition, in vitro inhibition of protein farnesyltransferase may be measured by the following procedure. Rat brain protein farnesyltransferase activity is measured using an Amersham Life Science commercial scintillation proximity assay kit and substituting a biotin-K Ras B fragment (biotin-[…]Ble-Met-CO2 H), […] final concentration, for the biotin-lamin substrate provided by Amersham. The enzyme is purified according to Reiss, Y., et al., Cell, 62: 81-88 (1990), utilizing steps one through three.
The % inhibition of protein farnesyltransferase was determined for representative compounds of the invention.

T1 sequence (Q02293 whole entry, one chain of several): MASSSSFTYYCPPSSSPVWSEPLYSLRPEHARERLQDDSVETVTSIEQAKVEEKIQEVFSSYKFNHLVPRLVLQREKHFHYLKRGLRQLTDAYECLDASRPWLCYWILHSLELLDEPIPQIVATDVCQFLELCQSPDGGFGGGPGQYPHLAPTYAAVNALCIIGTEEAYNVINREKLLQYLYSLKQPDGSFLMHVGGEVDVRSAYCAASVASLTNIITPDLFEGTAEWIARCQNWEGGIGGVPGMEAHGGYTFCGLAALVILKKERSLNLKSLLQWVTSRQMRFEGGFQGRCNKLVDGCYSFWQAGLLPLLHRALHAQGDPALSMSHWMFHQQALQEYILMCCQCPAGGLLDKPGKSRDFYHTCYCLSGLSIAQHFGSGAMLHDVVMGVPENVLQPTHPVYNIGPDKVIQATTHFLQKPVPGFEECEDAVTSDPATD

inhibition at 1 µM: 98%
Structure (SMILES): CSCC[C@H](NC(=O)c1ccc(CN(C2CC2)C2(CC3CCCCC3)CCC2)cc1-c1ccccc1C)C(=O)O [Example 330]

inhibition at 1 µM: 98%
Structure (SMILES): CSCC[C@H](NC(=O)c1ccc(CN(C(C)C)C2(Cc3ccccc3)CCC2)cc1-c1ccccc1C)C(=O)O [Example 331]

inhibition at 1 µM: 26%
Structure (SMILES): CSCC[C@H](NC(=O)c1ccc(CN(C(C)C)C2(CC3CCCCC3)CCC2)cc1-c1ccccc1C)C(=O)O [Example 332]

inhibition at 1 µM: 99%
Structure (SMILES): Cc1ccccc1-c1cc(CN(C2CC2)C2(Cc3ccccc3)CCC2)ccc1C(=O)N[C@@H](CCS(C)(=O)=O)C(=O)O [Example 333]

inhibition at 1 µM: 72%
Structure (SMILES): CSCC[C@H](NC(=O)c1ccc(CN(C(C)C)C2(Cc3ccccc3)CCCC2)cc1-c1ccccc1C)C(=O)O [Example 343]

inhibition at 1 µM: 91%
Structure (SMILES): Cc1ccccc1-c1cc(CN(C2CC2)C2(Cc3ccccc3)CCCC2)ccc1C(=O)N[C@@H](CCS(C)(=O)=O)C(=O)O [Example 345]

inhibition at 1 µM: 99%
Structure (SMILES): CSCC[C@H](NC(=O)c1ccc(CN2C(=O)OC[C@@H]2CC2CCCCC2)cc1-c1ccccc1C)C(=O)O [Example 349, [4-(5-cyclohexylmethyloxazolid-2-on-1-ylmethyl)-2-(2-methylphenyl)benzoyl]methionine]

% inhibition of farnesyltransferase at 1 × 10^-5 M: 87%
Structure (SMILES): CSCC[C@H](NC(=O)c1ccc(CNCCc2cccs2)cc1-c1ccccc1)C(=O)O [Example 369]

% inhibition of farnesyltransferase at 1 × 10^-5 M: 86%
Structure (SMILES): CSCC[C@H](NC(=O)c1ccc(CNc2cc[nH]n2)cc1-c1ccccc1)C(=O)O [Example 370]

% inhibition of farnesyltransferase at 1 × 10^-5 M: 66%
Structure (SMILES): CSCC[C@H](NC(=O)c1ccc(CNc2nnc(C)s2)cc1-c1ccccc1)C(=O)O [Example 371]

% inhibition of farnesyltransferase at 1 × 10^-5 M: 69%
Structure (SMILES): CSCC[C@H](NC(=O)c1ccc(CNc2cc(C)on2)cc1-c1ccccc1)C(=O)O [Example 372]

% inhibition of farnesyltransferase at 1 × 10^-5 M: 76%
Structure (SMILES): CSCC[C@H](NC(=O)c1ccc(CNc2cc(C)ns2)cc1-c1ccccc1)C(=O)O [Example 373]

% inhibition of farnesyltransferase at 1 × 10^-5 M: 61%
Structure (SMILES): CSCC[C@H](NC(=O)c1ccc(CNc2nccs2)cc1-c1ccccc1)C(=O)O [Example 374]

% inhibition of farnesyltransferase at 1 × 10^-6 M: 99%
Structure (SMILES): CCSC[C@H](CC1CCCCC1)NCc1ccc(C(=O)N[C@@H](CCSC)C(=O)O)c(-c2ccccc2C)c1 [Example 403]

% inhibition of farnesyltransferase at 1 × 10^-6 M: 98%
Structure (SMILES): CSCC[C@H](NC(=O)c1ccc(COCCC23CC4CC(CC(C4)C2)C3)cc1-c1ccccc1C)C(=O)O [Example 404]

% inhibition of farnesyltransferase at 1 × 10^-6 M: 98%
Structure (SMILES): CSCC[C@H](NC(=O)c1ccc(COCCCC2CCCCC2)cc1-c1ccccc1C)C(=O)O [Example 405]

% inhibition of farnesyltransferase at 1 × 10^-6 M: 95%
Structure (SMILES): CSCC[C@H](NC(=O)c1ccc(CN(Cc2ccccc2)c2ccccc2)cc1-c1ccccc1C)C(=O)O [Example 406]

% inhibition of farnesyltransferase at 1 × 10^-6 M: 96%
Structure (SMILES): CSCC[C@H](NC(=O)c1ccc(COCc2ccc(CN(C)C)o2)cc1-c1ccccc1C)C(=O)O [Example 435]

% inhibition of farnesyltransferase at 1 × 10^-7 M: 97%
Structure (SMILES): CSCC[C@H](NC(=O)c1ccc(COCc2ccc(-c3ccc(Cl)cc3)o2)cc1-c1ccccc1C)C(=O)O [Example 443]

inhibition at 1 µM: 81%
Structure (SMILES): Cc1ccccc1-c1cc(CCc2ccccc2Oc2ccccc2)ccc1C(=O)N[C@@H](CC[S+](C)[O-])C(=O)O (stereo partly drawn) [Example 456, N-[4-(2-(2-phenoxyphenyl)ethyl)-2-(2-methylphenyl)benzoyl]-2-amino-4-methylsulfinylbutanoic acid lithium salt]

inhibition at 1 µM: 88%
Structure (SMILES): Cc1ccccc1-c1cc(CCc2cccc(Oc3ccccc3)c2)ccc1C(=O)N[C@@H](CC[S+](C)[O-])C(=O)O (stereo partly drawn) [Example 460, N-[4-(2-(3-phenoxyphenyl)ethyl)-2-(2-methylphenyl)benzoyl]-2-amino-4-methylsulfinylbutanoic acid lithium salt]

The remaining lines, values behind:

Structure (SMILES): Cc1ccccc1-c1cc(CN(C2CC2)C2(CC3CCCCC3)CCC2)ccc1C(=O)N[C@@H](CCS(C)(=O)=O)C(=O)O [Example 334]
inhibition at 1 µM: 93%

Structure (SMILES): CSCC[C@H](NC(=O)c1ccc(CN(C(C)C)C2(CC3CCCCC3)CCCC2)cc1-c1ccccc1C)C(=O)O [Example 344]
inhibition at 1 µM: 95%

Structure (SMILES): Cc1ccccc1-c1cc(CN(C2CC2)C2(CC3CCCCC3)CCCC2)ccc1C(=O)N[C@@H](CCS(C)(=O)=O)C(=O)O [Example 346]
inhibition at 1 µM: 98%

Structure (SMILES): CCn1cc(NCc2ccc(C(=O)N[C@@H](CCSC)C(=O)O)c(-c3ccccc3)c2)c(=O)n1CC [Example 364]
% inhibition of farnesyltransferase at 1 × 10^-5 M: 69%

Structure (SMILES): CSCC[C@H](NC(=O)c1ccc(CNCCN2CCOCC2)cc1-c1ccccc1)C(=O)O [Example 365]
% inhibition of farnesyltransferase at 1 × 10^-5 M: 97%

Structure (SMILES): CSCC[C@H](NC(=O)c1ccc(CNCCN2CCCCC2)cc1-c1ccccc1)C(=O)O [Example 366]
% inhibition of farnesyltransferase at 1 × 10^-5 M: 83%

Structure (SMILES): CSCC[C@H](NC(=O)c1ccc(CNCCCN2CCOCC2)cc1-c1ccccc1)C(=O)O [Example 377]
% inhibition of farnesyltransferase at 1 × 10^-5 M: 71%

Structure (SMILES): CSCC[C@H](NC(=O)c1ccc(CNc2cc(C(C)(C)C)[nH]n2)cc1-c1ccccc1)C(=O)O [Example 381]
% inhibition of farnesyltransferase at 1 × 10^-5 M: 79%

Structure (SMILES): CSCC[C@H](NC(=O)c1ccc(COCc2ccc(Br)o2)cc1-c1ccccc1C)C(=O)[O-].[Li+] [Example 434]
% inhibition of farnesyltransferase at 1 × 10^-7 M: 93%

Structure (SMILES): CSCC[C@H](NC(=O)c1ccc(COCc2ccc(-c3cccc(F)c3)o2)cc1-c1ccccc1C)C(=O)[O-].[Li+] [Example 436]
% inhibition of farnesyltransferase at 1 × 10^-7 M: 89%

Structure (SMILES): CSCC[C@H](NC(=O)c1ccc(COCc2ccc(-c3ccccc3F)o2)cc1-c1ccccc1C)C(=O)[O-].[Li+] [Example 437]
% inhibition of farnesyltransferase at 1 × 10^-7 M: 89%

Structure (SMILES): CSCC[C@H](NC(=O)c1ccc(COCc2ccc(-c3ccccc3C(F)(F)F)o2)cc1-c1ccccc1C)C(=O)[O-].[Li+] [Example 438]
% inhibition of farnesyltransferase at 1 × 10^-7 M: 90%

Structure (SMILES): CSCC[C@H](NC(=O)c1ccc(COCc2ccc(-c3cccc([N+](=O)[O-])c3)o2)cc1-c1ccccc1C)C(=O)[O-].[Li+] [Example 440]
% inhibition of farnesyltransferase at 1 × 10^-7 M: 92%

Structure (SMILES): CSCC[C@H](NC(=O)c1ccc(COCc2ccc(-c3cccc(C(F)(F)F)c3)o2)cc1-c1ccccc1C)C(=O)[O-].[Li+] [Example 441]
% inhibition of farnesyltransferase at 1 × 10^-7 M: 91%

Structure (SMILES): COc1cccc(-c2ccc(COCc3ccc(C(=O)N[C@@H](CCSC)C(=O)[O-])c(-c4ccccc4C)c3)o2)c1.[Li+] [Example 442]
% inhibition of farnesyltransferase at 1 × 10^-7 M: 88%

Structure (SMILES): CSCC[C@H](NC(=O)c1ccc(COCc2ccc(-c3ccc(C(F)(F)F)cc3)o2)cc1-c1ccccc1C)C(=O)[O-].[Li+] [Example 445]
% inhibition of farnesyltransferase at 1 × 10^-7 M: 94%

Structure (SMILES): COc1ccc(-c2ccc(COCc3ccc(C(=O)N[C@@H](CCSC)C(=O)[O-])c(-c4ccccc4C)c3)o2)cc1.[Li+] [Example 446]
% inhibition of farnesyltransferase at 1 × 10^-7 M: 91%

Structure (SMILES): CSCC[C@H](NC(=O)c1ccc(COCc2ccc(-c3ccc(SC)cc3)o2)cc1-c1ccccc1C)C(=O)[O-].[Li+] [Example 447]
% inhibition of farnesyltransferase at 1 × 10^-7 M: 91%

Structure (SMILES): CSCC[C@H](NC(=O)c1ccc(COCc2ccc(-c3ccc(C=O)cc3)o2)cc1-c1ccccc1C)C(=O)[O-].[Li+] [Example 448]
% inhibition of farnesyltransferase at 1 × 10^-7 M: 92%

Structure (SMILES): CSCC[C@H](NC(=O)c1ccc(COCc2ccc(-c3ccc(C(C)=O)cc3)o2)cc1-c1ccccc1C)C(=O)[O-].[Li+] [Example 449]
% inhibition of farnesyltransferase at 1 × 10^-7 M: 91%

Structure (SMILES): CSCC[C@H](NC(=O)c1ccc(CCc2ccccc2-c2ccccc2)cc1-c1ccccc1C)C(=O)O [Example 452, N-[4-(2-(2-phenylphenyl)ethyl)-2-(2-methylphenyl)benzoyl]methionine lithium salt]
inhibition at 1 µM: 96%

Structure (SMILES): CSCC[C@H](NC(=O)c1ccc(C=Cc2ccccc2Oc2ccccc2)cc1-c1ccccc1C)C(=O)O [Example 453, N-[4-(2-(2-phenoxyphenyl)ethen-1-yl)-2-(2-methylphenyl)benzoyl]methionine lithium salt]
inhibition at 1 µM: 90%

Structure (SMILES): CSCC[C@H](NC(=O)c1ccc(CCc2ccccc2Oc2ccccc2)cc1-c1ccccc1C)C(=O)O [Example 455, N-[4-(2-(2-phenoxyphenyl)ethyl)-2-(2-methylphenyl)benzoyl]methionine lithium salt]
inhibition at 0.1 µM: 83%

Structure (SMILES): CSCC[C@H](NC(=O)c1ccc(C=Cc2ccccc2Cc2ccccc2)cc1-c1ccccc1C)C(=O)O [Example 457, N-[4-(2-(2-benzylphenyl)ethenyl)-2-(2-methylphenyl)benzoyl]methionine lithium salt]
inhibition at 1 µM: 92%

Structure (SMILES): CSCC[C@H](NC(=O)c1ccc(CCc2ccccc2Cc2ccccc2)cc1-c1ccccc1C)C(=O)O [Example 458, lithium salt]
inhibition at 0.1 µM: 87%

Structure (SMILES): CSCC[C@H](NC(=O)c1ccc(CCc2cccc(Oc3ccccc3)c2)cc1-c1ccccc1C)C(=O)O [Example 459, N-[4-(2-(3-phenoxyphenyl)ethyl)-2-(2-methylphenyl)benzoyl]methionine lithium salt]
inhibition at 0.1 µM: 92%

Structure (SMILES): CSCC[C@H](NC(=O)c1ccc(CCc2ccc(C3CCCCC3)cc2)cc1-c1ccccc1C)C(=O)O [Example 461, N-[4-(2-(4-cyclohexylphenyl)ethyl)-2-(2-methylphenyl)benzoyl]methionine lithium salt]
inhibition at 0.1 µM: 93%

Source: US6221865A, “Inhibitors of protein isoprenyl transferases” (priority 1998, dated 2001)
